Data taken from ChEMBL document CHEMBL5723379, “Affinity On-target Cellular Literature for EUbOPEN Chemogenomic Library” (2024).
One block for each compound: values may come before it.

Key:
[1] = molecular target: T1, Peroxisome proliferator-activated receptor delta (Homo sapiens, UniProt Q03181)
T1 sequence (Q03181 whole entry): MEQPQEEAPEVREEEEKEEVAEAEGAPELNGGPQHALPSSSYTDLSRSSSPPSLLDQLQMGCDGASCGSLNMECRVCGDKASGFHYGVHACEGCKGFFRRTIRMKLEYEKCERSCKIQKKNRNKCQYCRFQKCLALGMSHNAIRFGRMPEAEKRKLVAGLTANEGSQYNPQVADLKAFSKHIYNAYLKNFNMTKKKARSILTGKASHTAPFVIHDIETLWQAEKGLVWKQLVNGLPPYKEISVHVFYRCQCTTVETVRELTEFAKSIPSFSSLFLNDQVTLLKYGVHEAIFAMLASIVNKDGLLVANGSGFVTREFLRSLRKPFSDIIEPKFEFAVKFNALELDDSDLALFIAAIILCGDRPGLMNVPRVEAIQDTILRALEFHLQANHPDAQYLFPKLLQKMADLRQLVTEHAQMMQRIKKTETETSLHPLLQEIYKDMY

Vitamin D3 receptor [2] = molecular target: T2, Vitamin D3 receptor (Homo sapiens, UniProt P11473); assay: Affinity On-target Cellular interaction: (Reporter gene assay (HEK293T cells)) EUB0000582a VDR; assay type: functional, cell-based, HEK-293T; design: mode of action Agonist, recommended concentration 1 uM
[3] = molecular target: T1, Peroxisome proliferator-activated receptor delta; assay: Affinity On-target Cellular interaction: (Reporter gene assay (HEK293T cells)) EUB0001151a PPARD; assay type: functional, cell-based, HEK-293T; design: mode of action Antagonist, recommended concentration 1 uM
[4] = molecular target: T3, Peroxisome proliferator-activated receptor alpha (Homo sapiens, UniProt Q07869); assay: Affinity On-target Cellular interaction: (Reporter gene assay (HEK293T cells)) EUB0001140a PPARA; assay type: functional, cell-based, HEK-293T; design: mode of action Agonist, recommended concentration 1 uM
T3 sequence (Q07869 whole entry): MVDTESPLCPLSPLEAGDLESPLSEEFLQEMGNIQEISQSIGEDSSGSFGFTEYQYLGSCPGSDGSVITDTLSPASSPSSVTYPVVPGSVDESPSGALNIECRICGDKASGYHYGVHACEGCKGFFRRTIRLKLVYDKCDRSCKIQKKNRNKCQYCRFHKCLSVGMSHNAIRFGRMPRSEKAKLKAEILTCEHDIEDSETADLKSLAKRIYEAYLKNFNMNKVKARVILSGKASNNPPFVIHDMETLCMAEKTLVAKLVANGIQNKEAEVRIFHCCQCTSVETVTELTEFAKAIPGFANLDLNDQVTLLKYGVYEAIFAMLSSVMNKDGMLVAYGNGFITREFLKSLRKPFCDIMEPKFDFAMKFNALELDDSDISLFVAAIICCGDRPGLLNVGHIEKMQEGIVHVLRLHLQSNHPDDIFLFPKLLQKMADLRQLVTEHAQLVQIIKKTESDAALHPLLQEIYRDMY

Vitamin D3 receptor [5] = molecular target: T2, Vitamin D3 receptor; assay: Affinity On-target Cellular interaction: (Reporter gene assay (HEK293T cells)) EUB0000583a VDR; assay type: functional, cell-based, HEK-293T; design: mode of action Agonist, recommended concentration 1 uM
[6] = molecular target: T1, Peroxisome proliferator-activated receptor delta; assay: Affinity On-target Cellular interaction: (Reporter gene assay (HEK293T cells)) EUB0001141a PPARD; assay type: functional, cell-based, HEK-293T; design: mode of action Agonist, recommended concentration 1 uM
[7] = molecular target: T4, Peroxisome proliferator-activated receptor gamma (Homo sapiens, UniProt P37231); assay: Affinity On-target Cellular interaction: (Reporter gene assay (HEK293T cells)) EUB0000571a PPARG; assay type: functional, cell-based, HEK-293T; design: mode of action Agonist, recommended concentration 1 uM
T4 sequence (P37231 whole entry): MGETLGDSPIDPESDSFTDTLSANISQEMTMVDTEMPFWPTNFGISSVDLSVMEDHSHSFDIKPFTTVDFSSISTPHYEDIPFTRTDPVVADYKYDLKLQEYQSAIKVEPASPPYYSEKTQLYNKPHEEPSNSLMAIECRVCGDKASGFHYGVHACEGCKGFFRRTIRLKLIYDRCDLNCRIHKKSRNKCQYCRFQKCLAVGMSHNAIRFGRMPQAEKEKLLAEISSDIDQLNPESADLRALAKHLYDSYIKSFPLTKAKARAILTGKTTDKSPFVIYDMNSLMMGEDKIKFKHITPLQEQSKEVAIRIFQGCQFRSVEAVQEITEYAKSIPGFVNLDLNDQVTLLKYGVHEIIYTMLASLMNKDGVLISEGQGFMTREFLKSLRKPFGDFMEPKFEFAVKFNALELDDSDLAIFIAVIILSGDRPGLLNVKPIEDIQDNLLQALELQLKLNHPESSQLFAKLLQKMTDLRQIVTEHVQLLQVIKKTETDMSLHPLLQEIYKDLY

[8] = molecular target: Nuclear receptor subfamily 1 group I member 3 (Homo sapiens, UniProt Q14994); assay: Affinity On-target Cellular interaction: (Reporter gene assay (HEK293T cells)) EUB0000551aCl NR1I3; assay type: functional, cell-based, HEK-293T; design: mode of action Antagonist, recommended concentration 1 uM
[9] = molecular target: T4, Peroxisome proliferator-activated receptor gamma; assay: Affinity On-target Cellular interaction: (Reporter gene assay (HEK293T cells)) EUB0001150a PPARG; assay type: functional, cell-based, HEK-293T; design: mode of action Antagonist, recommended concentration 10 uM
[10] = molecular target: T3, Peroxisome proliferator-activated receptor alpha; assay: Affinity On-target Cellular interaction: (Reporter gene assay (HEK293T cells)) EUB0001150a PPARA; assay type: functional, cell-based, HEK-293T; design: mode of action Antagonist, recommended concentration 10 uM
[11] = molecular target: Nuclear receptor subfamily 1 group D member 2 (Homo sapiens, UniProt Q14995); assay: Affinity On-target Cellular interaction: (Reporter gene assay (HEK293T cells)) EUB0001152a NR1D2; assay type: functional, cell-based, HEK-293T; design: mode of action Agonist, recommended concentration 10 uM
Bile acid receptor = Bile acid receptor (Homo sapiens, UniProt Q96RI1); assay: Affinity On-target Cellular interaction: (Reporter gene assay (HEK293T cells)) EUB0000182b NR1H4; assay type: functional, cell-based, HEK-293T; design: mode of action Agonist, recommended concentration 1 uM
[12] = molecular target: T5, Oxysterols receptor LXR-beta (Homo sapiens, UniProt P55055); assay: Affinity On-target Cellular interaction: (Reporter gene assay (HEK293T cells)) EUB0000572aCl NR1H2; assay type: functional, cell-based, HEK-293T; design: mode of action Agonist, recommended concentration 3 uM
T5 sequence (P55055 whole entry): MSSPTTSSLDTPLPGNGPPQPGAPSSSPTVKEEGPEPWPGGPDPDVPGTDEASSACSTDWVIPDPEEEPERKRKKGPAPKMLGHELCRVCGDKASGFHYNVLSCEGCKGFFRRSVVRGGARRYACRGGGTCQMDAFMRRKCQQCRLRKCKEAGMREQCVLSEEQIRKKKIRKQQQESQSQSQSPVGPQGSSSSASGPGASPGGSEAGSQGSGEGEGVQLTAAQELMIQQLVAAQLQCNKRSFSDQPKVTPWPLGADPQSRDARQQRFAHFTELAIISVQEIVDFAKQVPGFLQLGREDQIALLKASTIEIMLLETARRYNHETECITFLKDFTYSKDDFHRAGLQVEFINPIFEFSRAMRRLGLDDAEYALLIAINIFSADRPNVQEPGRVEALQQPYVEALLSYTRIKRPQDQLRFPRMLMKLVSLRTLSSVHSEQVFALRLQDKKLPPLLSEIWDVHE

T2 sequence (P11473 whole entry): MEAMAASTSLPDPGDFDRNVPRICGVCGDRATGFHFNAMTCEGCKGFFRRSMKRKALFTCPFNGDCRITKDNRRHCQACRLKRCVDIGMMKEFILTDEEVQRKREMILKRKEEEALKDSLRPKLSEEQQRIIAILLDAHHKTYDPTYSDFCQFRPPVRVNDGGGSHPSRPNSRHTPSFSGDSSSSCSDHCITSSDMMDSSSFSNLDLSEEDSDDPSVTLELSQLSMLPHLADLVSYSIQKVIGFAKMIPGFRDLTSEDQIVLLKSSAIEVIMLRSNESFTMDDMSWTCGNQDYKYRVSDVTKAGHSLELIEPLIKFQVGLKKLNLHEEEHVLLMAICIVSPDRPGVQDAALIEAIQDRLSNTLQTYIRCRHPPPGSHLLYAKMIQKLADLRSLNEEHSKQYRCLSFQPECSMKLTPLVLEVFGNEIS
Sequence of Nuclear receptor subfamily 1 group D member 2 (Q14995 whole entry): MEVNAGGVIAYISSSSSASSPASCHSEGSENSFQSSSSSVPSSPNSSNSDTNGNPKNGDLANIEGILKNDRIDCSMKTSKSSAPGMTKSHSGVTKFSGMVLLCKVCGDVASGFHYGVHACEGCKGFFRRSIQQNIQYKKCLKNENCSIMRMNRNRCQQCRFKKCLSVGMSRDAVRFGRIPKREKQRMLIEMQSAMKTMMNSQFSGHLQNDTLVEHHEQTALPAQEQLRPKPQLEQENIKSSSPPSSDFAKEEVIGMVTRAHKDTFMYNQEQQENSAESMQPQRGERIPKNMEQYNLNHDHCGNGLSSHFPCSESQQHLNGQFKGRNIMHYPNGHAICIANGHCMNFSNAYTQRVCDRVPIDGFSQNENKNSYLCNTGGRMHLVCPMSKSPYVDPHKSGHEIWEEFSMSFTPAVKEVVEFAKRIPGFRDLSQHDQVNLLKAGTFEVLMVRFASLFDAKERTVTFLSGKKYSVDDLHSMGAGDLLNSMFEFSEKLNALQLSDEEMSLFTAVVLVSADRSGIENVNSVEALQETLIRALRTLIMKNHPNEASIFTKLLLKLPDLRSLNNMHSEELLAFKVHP
Sequence of Bile acid receptor (Q96RI1 whole entry): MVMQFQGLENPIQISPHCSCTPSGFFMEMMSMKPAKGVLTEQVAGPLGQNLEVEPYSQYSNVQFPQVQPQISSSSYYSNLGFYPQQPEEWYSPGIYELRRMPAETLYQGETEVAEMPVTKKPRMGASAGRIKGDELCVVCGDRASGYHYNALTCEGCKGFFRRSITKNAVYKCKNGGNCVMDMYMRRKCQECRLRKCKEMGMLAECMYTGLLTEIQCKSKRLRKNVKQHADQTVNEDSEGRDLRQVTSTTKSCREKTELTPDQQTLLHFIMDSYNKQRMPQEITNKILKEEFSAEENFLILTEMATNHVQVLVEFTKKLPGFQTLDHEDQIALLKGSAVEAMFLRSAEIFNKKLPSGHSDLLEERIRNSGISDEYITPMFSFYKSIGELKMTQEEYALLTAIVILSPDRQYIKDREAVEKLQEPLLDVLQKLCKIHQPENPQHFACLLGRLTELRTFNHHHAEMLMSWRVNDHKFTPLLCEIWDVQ
Sequence of Nuclear receptor subfamily 1 group I member 3 (Q14994 whole entry): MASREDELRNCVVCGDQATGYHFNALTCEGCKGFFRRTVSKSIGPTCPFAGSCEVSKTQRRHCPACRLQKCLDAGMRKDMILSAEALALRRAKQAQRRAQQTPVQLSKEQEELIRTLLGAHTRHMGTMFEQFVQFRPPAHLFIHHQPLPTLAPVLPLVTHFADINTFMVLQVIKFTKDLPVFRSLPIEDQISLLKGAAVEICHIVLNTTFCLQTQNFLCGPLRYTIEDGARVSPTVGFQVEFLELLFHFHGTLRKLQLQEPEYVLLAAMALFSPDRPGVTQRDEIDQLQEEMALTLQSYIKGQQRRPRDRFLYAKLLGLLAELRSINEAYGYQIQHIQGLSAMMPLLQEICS

SMILES: O=C(O)CCCc1cc2cc(Cl)ccc2n1S(=O)(=O)c1ccc2ncsc2c1 [LANIFIBRANOR]
- EC50 [1]: 900 nM

SMILES: C=C1/C(=C\C=C2/CCC[C@]3(C)[C@@H]([C@H](C)/C=C/C=C/C(O)(CC)CC)CC[C@@H]23)C[C@@H](O)C[C@@H]1O [SEOCALCITOL]
- EC50 (Vitamin D3 receptor [2]): 110 nM

SMILES: COc1ccc(OC(=O)N(CC(=O)O)Cc2ccc(OCCc3nc(-c4ccccc4)oc3C)cc2)cc1 [MURAGLITAZAR]
- EC50 [4]: 50 nM

SMILES: C=C1/C(=C\C=C2/CCC[C@]3(C)[C@@H]([C@H](C)/C=C/[C@H](C)C(C)C)CC[C@@H]23)C[C@@H](O)C[C@@H]1O [DOXERCALCIFEROL]
- EC50 (Vitamin D3 receptor [5]): 960 nM

SMILES: Cc1nc(-c2ccc(C(F)(F)F)cc2)sc1C(=O)NCc1ccc(OC(C)(C)C(=O)O)cc1 [GW590735]
- EC50 [6]: 160 nM

SMILES: CCOC(=O)N1CCC(CN(Cc2ccc(Cl)cc2)Cc2ccc([N+](=O)[O-])s2)C1 (stereo not drawn) [SR9009]
- EC50 [11]: 11000 nM

SMILES: COC(=O)/C=C/c1cccc(N(Cc2ccc(-c3ccc(N(C)C)cc3)cc2)C(=O)C2CCCCC2)c1 [FEXARAMINE]
- EC50 (Bile acid receptor): 960 nM

Further lines, results first:

- IC50 [3]: 100 nM
SMILES: O=C(NCCS(=O)(=O)c1ccc(C(F)(F)F)cn1)c1ccc(Cl)cc1

- EC50 [7]: 42 nM
SMILES: COC(=O)C(Cc1ccc(OCCn2c(=O)sc3cc(C(=O)c4ccccc4)ccc32)cc1)C(=O)OC

- IC50 [8]: 63 nM
SMILES: Cc1cccc(CN2CCN(C(c3ccccc3)c3ccc(Cl)cc3)CC2)c1 (stereo not drawn)

- IC50 [9]: 7600 nM
- IC50 [10]: 6100 nM
SMILES: COC(=O)c1sccc1S(=O)(=O)Nc1ccc(Nc2ccccc2)cc1OC

- EC50 [12]: 2100 nM
SMILES: O=C(O)Cc1cccc(OCCCN(Cc2cccc(C(F)(F)F)c2Cl)CC(c2ccccc2)c2ccccc2)c1
